Data: ChEMBL document CHEMBL5696441 (Nat Chem Biol, 2011)
The source made the active and inactive calls. The calls are words filed in the database; no cut-off is given here.

Key:
[1] = Anti-inflammatory activity against human derived medium respond PBMC cells assessed as inhibition in stimulated MCP-1 chemokine release incubated for 2 hrs in the presence of LPS/SEB/aCD28 by Luminex based sandwich immunoassay; type: functional, cell-based
[2] = biological target: Receptor-type tyrosine-protein kinase FLT3 (Homo sapiens) (UniProt P36888); assay: Inhibition of human FLT3 assessed as residual activity at 1 uM using Poly(Ala,Glu,Lys,Tyr)6:2:5:1 as substrate in presence of 33P-ATP by ProQinase assay relative to control
[3] = biological target: Serine/threonine-protein kinase PLK2 (Homo sapiens) (UniProt Q9NYY3); assay: Inhibition of human SNK assessed as residual activity at 1 uM using RBER-GSK3(14-27) as substrate in presence of 33P-ATP by ProQinase assay relative to control
Sequence of Serine/threonine-protein kinase PLK2 (Homo sapiens) (Q9NYY3 whole entry, looked up): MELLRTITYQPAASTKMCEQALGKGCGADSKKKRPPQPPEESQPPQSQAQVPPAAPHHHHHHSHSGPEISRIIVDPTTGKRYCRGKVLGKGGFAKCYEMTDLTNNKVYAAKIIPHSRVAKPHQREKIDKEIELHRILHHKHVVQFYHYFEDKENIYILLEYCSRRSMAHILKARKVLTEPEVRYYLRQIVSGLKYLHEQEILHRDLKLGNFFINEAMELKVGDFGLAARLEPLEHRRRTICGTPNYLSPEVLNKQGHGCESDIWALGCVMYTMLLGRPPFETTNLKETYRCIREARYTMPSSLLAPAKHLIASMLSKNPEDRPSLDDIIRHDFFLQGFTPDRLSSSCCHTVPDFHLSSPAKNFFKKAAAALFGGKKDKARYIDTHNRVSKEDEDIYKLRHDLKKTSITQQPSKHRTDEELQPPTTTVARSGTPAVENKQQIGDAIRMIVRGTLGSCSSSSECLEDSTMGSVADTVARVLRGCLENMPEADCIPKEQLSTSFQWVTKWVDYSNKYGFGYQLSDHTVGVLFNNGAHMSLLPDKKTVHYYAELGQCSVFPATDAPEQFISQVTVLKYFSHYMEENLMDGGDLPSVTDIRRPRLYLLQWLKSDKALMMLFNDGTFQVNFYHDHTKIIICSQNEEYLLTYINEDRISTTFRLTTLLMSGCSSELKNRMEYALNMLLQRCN

[4] = biological target: Serine/threonine-protein kinase Nek6 (Homo sapiens) (UniProt Q9HC98); assay: Inhibition of human NEK6 assessed as residual activity at 1 uM using RBER-GSK3 as substrate in presence of 33P-ATP by ProQinase assay relative to control
[5] = biological target: Mitogen-activated protein kinase kinase kinase 9 (Homo sapiens) (UniProt P80192); assay: Inhibition of MLK1 (unknown origin) assessed as remaining activity at 1 uM by Kinome scan method relative to control
Sequence of Mitogen-activated protein kinase kinase kinase 9 (Homo sapiens) (P80192 whole entry, looked up): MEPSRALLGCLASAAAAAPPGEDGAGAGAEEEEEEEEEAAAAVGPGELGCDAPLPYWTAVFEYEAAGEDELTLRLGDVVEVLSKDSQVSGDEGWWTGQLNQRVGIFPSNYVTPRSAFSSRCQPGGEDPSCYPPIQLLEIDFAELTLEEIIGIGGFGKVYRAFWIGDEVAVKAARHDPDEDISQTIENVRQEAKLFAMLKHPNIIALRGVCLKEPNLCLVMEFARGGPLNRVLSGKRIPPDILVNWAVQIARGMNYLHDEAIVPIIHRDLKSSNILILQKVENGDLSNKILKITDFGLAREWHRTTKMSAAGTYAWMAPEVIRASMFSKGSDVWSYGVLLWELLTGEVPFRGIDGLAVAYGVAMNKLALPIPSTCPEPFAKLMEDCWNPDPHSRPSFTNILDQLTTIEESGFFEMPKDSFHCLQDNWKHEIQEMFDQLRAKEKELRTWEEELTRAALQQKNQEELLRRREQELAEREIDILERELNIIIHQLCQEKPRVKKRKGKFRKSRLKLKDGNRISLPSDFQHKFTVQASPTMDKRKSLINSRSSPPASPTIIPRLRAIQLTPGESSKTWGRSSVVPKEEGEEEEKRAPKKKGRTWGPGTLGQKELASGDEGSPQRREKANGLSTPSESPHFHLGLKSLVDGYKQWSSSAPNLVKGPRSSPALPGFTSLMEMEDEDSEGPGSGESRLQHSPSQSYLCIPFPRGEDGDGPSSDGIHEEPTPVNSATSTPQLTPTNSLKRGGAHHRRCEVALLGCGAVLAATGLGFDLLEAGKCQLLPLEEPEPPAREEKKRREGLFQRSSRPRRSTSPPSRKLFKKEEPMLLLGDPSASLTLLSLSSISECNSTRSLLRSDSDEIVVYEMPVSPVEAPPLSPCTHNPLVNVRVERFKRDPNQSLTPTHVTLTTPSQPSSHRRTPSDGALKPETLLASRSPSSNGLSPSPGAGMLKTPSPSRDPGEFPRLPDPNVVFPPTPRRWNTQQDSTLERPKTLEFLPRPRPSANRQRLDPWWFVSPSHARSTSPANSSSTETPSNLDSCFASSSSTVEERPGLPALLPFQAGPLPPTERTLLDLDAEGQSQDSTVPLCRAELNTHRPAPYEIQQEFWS

[6] = Anti-inflammatory activity against human derived medium respond PBMC cells assessed as inhibition in stimulated INFgamma cytokine release incubated for 2 hrs in the presence of LPS/SEB/aCD28 by Luminex based sandwich immunoassay; type: functional, cell-based
[7] = biological target: Receptor tyrosine-protein kinase erbB-3 (Homo sapiens) (UniProt P21860); assay: Inhibition of ERBB3 (unknown origin) assessed as remaining activity at 1 uM by Kinome scan method relative to control
[8] = biological target: Protein kinase C epsilon type (Homo sapiens) (UniProt Q02156); assay: Inhibition of PRKCE (unknown origin) assessed as remaining activity at 1 uM by Kinome scan method relative to control
Sequence of Protein kinase C epsilon type (Homo sapiens) (Q02156 whole entry): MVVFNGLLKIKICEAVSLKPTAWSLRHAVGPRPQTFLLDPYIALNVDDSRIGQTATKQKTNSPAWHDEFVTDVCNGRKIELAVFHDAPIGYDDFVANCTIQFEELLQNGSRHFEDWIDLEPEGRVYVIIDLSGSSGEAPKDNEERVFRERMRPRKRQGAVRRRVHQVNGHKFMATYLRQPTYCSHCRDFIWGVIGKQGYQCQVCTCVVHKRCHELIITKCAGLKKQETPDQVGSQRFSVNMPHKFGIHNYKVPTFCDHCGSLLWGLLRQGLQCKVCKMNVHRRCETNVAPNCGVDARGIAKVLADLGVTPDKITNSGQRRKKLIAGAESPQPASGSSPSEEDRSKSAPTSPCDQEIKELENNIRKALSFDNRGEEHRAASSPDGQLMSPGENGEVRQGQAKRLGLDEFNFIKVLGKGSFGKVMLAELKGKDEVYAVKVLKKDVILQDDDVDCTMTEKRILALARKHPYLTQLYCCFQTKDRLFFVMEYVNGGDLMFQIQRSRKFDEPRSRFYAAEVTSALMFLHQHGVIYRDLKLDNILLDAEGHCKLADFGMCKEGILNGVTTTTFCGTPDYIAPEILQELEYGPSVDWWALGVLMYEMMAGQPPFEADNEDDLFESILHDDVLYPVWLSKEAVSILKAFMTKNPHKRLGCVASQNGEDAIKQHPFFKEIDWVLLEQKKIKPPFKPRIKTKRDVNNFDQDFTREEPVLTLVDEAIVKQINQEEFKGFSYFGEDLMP

[9] = Anti-inflammatory activity against human derived high respond PBMC cells assessed as inhibition in stimulated TNF-alpha cytokine release incubated for 2 hrs in the presence of LPS/SEB/aCD28 by Luminex based sandwich immunoassay; type: functional, cell-based
[10] = biological target: MAP kinase p38 (Homo sapiens) (UniProt O15264+Q15759+Q16539+P53778); assay: Inhibition of p38-MAPK in human HeLa cells assessed as reduction in HSP27 phosphorylation at Ser82 level at 50 nM incubated for 2 hrs in the presence of anisomycin stimulation for 40 mins by western blot analysis; type: cell-based
[11] = biological target: Serine/threonine-protein kinase 10 (Homo sapiens) (UniProt O94804); assay: Inhibition of LOK (unknown origin) assessed as remaining activity at 1 uM by Kinome scan method relative to control
[12] = biological target: Cyclin-dependent kinase-like 2 (Homo sapiens) (UniProt Q92772); assay: Inhibition of CDKL2 (unknown origin) assessed as remaining activity at 1 uM by Kinome scan method relative to control
Sequence of Cyclin-dependent kinase-like 2 (Homo sapiens) (Q92772 whole entry): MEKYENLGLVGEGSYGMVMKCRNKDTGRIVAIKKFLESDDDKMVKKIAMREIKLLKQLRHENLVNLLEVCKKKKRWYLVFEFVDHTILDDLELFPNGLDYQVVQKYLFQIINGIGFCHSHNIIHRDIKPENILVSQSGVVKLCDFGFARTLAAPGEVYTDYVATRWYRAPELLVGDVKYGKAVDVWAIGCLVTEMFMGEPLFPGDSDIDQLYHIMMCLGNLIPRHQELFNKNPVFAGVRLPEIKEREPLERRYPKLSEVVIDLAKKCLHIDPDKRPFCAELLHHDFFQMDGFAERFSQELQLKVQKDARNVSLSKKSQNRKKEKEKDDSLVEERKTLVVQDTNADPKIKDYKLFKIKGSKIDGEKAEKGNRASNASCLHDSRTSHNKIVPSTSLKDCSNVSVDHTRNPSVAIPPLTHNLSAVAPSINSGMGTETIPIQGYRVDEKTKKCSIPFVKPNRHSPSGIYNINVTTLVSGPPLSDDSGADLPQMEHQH

[13] = biological target: Serine/threonine-protein kinase WNK3 (Homo sapiens) (UniProt Q9BYP7); assay: Inhibition of human WNK3 assessed as residual activity at 1 uM using RB-S6P as substrate in presence of 33P-ATP by ProQinase assay relative to control
Sequence of Serine/threonine-protein kinase WNK3 (Homo sapiens) (Q9BYP7 whole entry): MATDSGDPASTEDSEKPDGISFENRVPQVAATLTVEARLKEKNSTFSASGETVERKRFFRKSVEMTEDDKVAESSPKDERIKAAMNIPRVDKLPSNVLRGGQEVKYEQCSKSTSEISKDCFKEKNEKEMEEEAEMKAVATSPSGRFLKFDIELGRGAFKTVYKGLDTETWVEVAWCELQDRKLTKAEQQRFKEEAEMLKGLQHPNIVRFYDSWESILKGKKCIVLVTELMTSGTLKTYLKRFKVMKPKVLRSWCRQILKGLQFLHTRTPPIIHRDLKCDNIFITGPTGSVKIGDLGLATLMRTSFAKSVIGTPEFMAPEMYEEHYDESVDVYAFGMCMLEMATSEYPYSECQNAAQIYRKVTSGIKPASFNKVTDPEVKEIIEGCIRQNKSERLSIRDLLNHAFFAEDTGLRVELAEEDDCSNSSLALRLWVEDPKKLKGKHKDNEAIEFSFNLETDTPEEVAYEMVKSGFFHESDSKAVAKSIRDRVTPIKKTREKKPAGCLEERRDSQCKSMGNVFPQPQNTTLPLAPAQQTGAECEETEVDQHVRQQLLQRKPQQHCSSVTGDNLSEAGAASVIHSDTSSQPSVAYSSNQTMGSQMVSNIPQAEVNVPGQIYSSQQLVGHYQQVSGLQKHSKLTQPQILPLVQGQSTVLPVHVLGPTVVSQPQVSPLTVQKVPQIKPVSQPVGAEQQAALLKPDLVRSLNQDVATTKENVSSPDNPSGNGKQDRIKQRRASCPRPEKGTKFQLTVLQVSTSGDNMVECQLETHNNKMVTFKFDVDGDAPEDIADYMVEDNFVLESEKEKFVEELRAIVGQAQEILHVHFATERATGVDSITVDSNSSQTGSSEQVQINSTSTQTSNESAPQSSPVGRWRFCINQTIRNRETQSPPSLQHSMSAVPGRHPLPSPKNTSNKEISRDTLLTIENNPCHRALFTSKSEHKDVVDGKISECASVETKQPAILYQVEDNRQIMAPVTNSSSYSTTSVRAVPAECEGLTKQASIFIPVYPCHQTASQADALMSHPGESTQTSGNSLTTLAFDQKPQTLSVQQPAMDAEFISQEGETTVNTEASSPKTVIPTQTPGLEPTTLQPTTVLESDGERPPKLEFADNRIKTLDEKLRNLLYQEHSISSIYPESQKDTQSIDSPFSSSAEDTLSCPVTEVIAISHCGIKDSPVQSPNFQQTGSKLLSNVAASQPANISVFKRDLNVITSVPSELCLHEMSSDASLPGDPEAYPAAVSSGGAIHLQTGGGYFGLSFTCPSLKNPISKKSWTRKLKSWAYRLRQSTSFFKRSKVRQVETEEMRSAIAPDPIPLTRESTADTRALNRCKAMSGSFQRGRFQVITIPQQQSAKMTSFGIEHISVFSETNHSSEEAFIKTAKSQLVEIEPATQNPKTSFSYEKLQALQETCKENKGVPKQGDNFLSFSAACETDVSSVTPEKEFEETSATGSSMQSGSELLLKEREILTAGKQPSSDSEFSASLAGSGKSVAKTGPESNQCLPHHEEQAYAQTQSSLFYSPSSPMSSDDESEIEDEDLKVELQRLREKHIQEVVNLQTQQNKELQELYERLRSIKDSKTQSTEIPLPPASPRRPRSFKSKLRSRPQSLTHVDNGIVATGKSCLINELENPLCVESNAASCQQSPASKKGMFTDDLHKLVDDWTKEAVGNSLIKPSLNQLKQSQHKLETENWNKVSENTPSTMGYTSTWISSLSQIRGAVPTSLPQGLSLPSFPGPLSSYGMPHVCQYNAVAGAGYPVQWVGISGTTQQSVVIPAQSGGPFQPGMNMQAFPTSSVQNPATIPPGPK

[14] = biological target: Tyrosine-protein kinase Srms (Homo sapiens) (UniProt Q9H3Y6); assay: Inhibition of human SRMS assessed as residual activity at 1 uM using PolyEY as substrate in presence of 33P-ATP by ProQinase assay relative to control
[15] = biological target: T1, Mitogen-activated protein kinase 12 (Homo sapiens) (UniProt P53778); assay: Inhibition of human P38gamma assessed as residual activity at 1 uM using RBER-IRStide as substrate in presence of 33P-ATP by ProQinase assay relative to control
T1 sequence (whole entry): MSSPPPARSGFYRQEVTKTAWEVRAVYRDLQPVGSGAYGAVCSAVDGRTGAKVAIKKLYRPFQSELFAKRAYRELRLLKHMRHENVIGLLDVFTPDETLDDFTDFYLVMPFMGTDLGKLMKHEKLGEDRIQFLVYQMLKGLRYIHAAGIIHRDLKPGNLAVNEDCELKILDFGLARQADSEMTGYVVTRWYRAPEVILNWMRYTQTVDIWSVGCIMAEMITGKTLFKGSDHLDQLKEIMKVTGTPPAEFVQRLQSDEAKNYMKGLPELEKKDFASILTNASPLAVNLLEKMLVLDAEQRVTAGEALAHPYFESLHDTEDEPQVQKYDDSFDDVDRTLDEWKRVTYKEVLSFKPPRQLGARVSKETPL

[16] = biological target: Protein kinase C delta type (Homo sapiens) (UniProt Q05655); assay: Inhibition of human PKCdelta assessed as residual activity at 1 uM using 3xChocktide-PKC(19-31) as substrate in presence of 33P-ATP by ProQinase assay relative to control
[17] = biological target: Phosphatidylinositol 4-phosphate 3-kinase C2 domain-containing subunit beta (Homo sapiens) (UniProt O00750); assay: Inhibition of PIK3C2B (unknown origin) assessed as remaining activity at 1 uM by Kinome scan method relative to control
[18] = tested on: Receptor-type tyrosine-protein kinase FLT3 (Homo sapiens), P36888 [N841I]; assay: Inhibition of FLT3 N841I mutant (unknown origin) assessed as remaining activity at 1 uM by Kinome scan method relative to control

O=C1c2ccc(Nc3ccc(F)cc3F)cc2CCc2ccc(OC[C@H](O)CO)cc21 [Skepinone-L]
IC50 [1]: 90 nM | Activity [2]: 106% | Activity [3]: 103% | Activity [4]: 97% | Activity [5]: 100% | IC50 [6]: 300 nM | Activity [7]: 100% | Activity [8]: 100% | IC50 [9]: 50 nM | inhibition [10]: Active | Activity [11]: 96% | Activity [12]: 100% | Activity [13]: 100% | Activity [14]: 95% | Activity [15]: 102% | Activity [16]: 104% | Activity [17]: 100% | Activity [18]: 96%
